Structures are written as SMILES.

The logP is a log measure of how a compound divides between an organic and an aqueous phase.

Take `Cc1cccc(Br)c1`: the log partition coefficient (logP) amounted to 3.41.
Regarding `Cc1ccc(F)cc1`, the logP is 2.58.
For the compound `CC(=O)c1cccc(N)c1`, the lipophilicity (logP) worked out at 0.83.
Take `Fc1cccc(Br)c1`: the log partition coefficient (logP) turned out to be 2.92.
The compound `Fc1ccc(Br)cc1` displayed a logP of 3.08.
Compound `CC(=O)c1cccc(C)c1` yielded a lipophilicity (logP) of 2.15.
As for `COc1ccc(F)cc1`, the logP amounted to 2.26.
Regarding `Fc1ccc(Cl)cc1`, the log partition coefficient (logP) came out at 2.78.
On to `CC(=O)c1cccc(Br)c1`, for which the log partition coefficient (logP) came out at 2.47.
Next, `COc1ccc(OC)cc1`: 2.04; `COc1cccc(Br)c1`: 3.03; `Clc1ccc(Br)cc1`: 3.54.
The compound `Clc1cccc(Br)c1` displayed a logP of 3.7.
In turn, `COc1ccc(Br)cc1` showed a log partition coefficient (logP) of 3.05.
For the compound `COc1cccc(F)c1`, the logP was 2.36.
`Fc1ccc(F)cc1` returned a logP of 2.13.
Next, `Cc1cccc(F)c1`: 2.75; `Cc1ccc(Br)cc1`: 3.42.
The compound `Fc1cccc(F)c1` showed a log partition coefficient (logP) of 2.21.

These data come from the OPERA property sets (Mansouri et al. 2018).
